Data set [1] deals with barnyard grass (Echinochloa crus-galli). Description: Experiment 1: herbicidal effects against barnyard grass (pot test, emulsifiable concentrate). The class given is in vivo.
A short description of data set [2]: Experiment 3: acute toxicity to fish. The class given is in vivo, Black-carp fry. The conditions noted are these: carp, water; for LC50 at 48 h: read-out: Median lethal concentration TLm (48hrs); for LC50 at 96 h: read-out: Median lethal concentration TLm (96hrs). As for the experimental part:
With respect to the compounds according to the present invention and the comparative compounds (Compound 10, Compound 12 and Compound 13), there were conducted tests on acute toxicity to carps.
In 25-liter water tanks made of glass was charged 20 liters of water. 12 Black-carp fry were released to each of the water tanks and bred while feeding for 7 days. Then, the whole quantity of water in each of the tanks was replaced with fresh water, and feeding to the carps was stopped. After three days, a prescribed amount of 1 weight % solution of a test compound in acetone was added to water in the water tank.
The number of survival fish in each tank was counted after 24 hours, 48 hours and 96 hours, successively.
The TLm (median tolerance limit=lethal concentration 50%) was determined by the Doudorff's method (Sewage & Ind. Wastes 23 (1951) 1380-1397).

The subject of data set [3] is Mizugayatsuri (Cyperus serotinus). Kind of data set: Experiment 2: herbicidal effects against Mizugayatsuri (pot test, granules). The class given is in vivo. To be noted: 25 days.
For a further data set, the system named is barnyard grass. Kind of data set: Experiment 2: herbicidal effects against barnyard grass (pot test, granules). The data set is classed as in vivo, Echinochloa crus-galli. To be noted: 2.5 leaf-stage, 25 days.
For data set [4], the system named is Hotarui (Scirpus juncoides). Kind of data set: Experiment 2: herbicidal effects against Hotarui (pot test, granules). The data set is classed as in vivo. The conditions noted are these: 25 days.
The subject of another data set is carps. Description: Experiment 4: subacute toxicity to fish. The class given is in vivo, 2-year-old carps. As for the experimental part:
(§1) With respect to the compounds according to the present invention and the comparative compounds listed in Table 4, there were conducted tests on subacute toxicity to 2-year-old carps having an average weight of 20 g.
(§2) Ten 2-year-old carps were released in each of 25-liter water tanks equipped with an air-blowing apparatus and acclimatized to the surroundings while feeding for 10 days. Water in each of the water tanks was continuously replaced with fresh water so that the residence time of water in the water tanks is 6 hours. Each test compound was added to a predetermined quantity of supply water to prepare a 0.2 ppm aqueous solution of each compound, and each of the aqueous solutions was continuously added to the water in the tank. After three weeks, the hematocrit values of all the survival carps were determined. The hematocrit value used herein is intended to mean a volume percentage of erythrocyte contained in the blood.

Data set [5] can be described thus: Experiment 4: subacute toxicity to fish. The conditions noted are these: carp, water; 0.2 ppm; 3 weeks; read-out: Survival rate after 3 weeks. The data set is classed as in vivo, 2-year-old carps. As for the experimental part: as §1, §2
The subject of a further data set is broad-leaf weeds. Description: Experiment 2: herbicidal effects against broad-leaf weeds (pot test, granules). The class given is in vivo. To be noted: 25 days.
The test system of another data set is rice plants. Kind of data set: Experiment 2: phytotoxicity to rice plants (pot test, granules). To be noted: 25 days.
Where [6] appears, read: 1.5 leaf-stage of barnyard grass, 150 g/10a., 25 days.
The mark [7] stands for this setting: 1.5 leaf-stage of barnyard grass, 300 g/10a., 25 days.
[8] abbreviates: 1.5 leaf-stage of barnyard grass, 600 g/10a., 25 days.
Where [9] appears, read: 3 leaf-stage of barnyard grass, 150 g/10a., 25 days.
The mark [10] stands for this setting: 3 leaf-stage of barnyard grass, 300 g/10a., 25 days.
Where [11] appears, read: 3 leaf-stage of barnyard grass, 600 g/10a., 25 days.

Structures are written as SMILES. Converted amounts (≈) assume the structure as drawn. “And” between values parts separate entries of the source, which are not always exact repeats. Equal values may be shown once.

In the case of `CC1CCCCN1C(=O)SCCCCCl` (stereo not drawn) [Compound 1, S-(4-chlorobutyl)-(2-methyl)-piperidine-1-carbothioate], the “herbicidal activity (barnyard grass)” value in [1] (setting [6]), in [1] (setting [7]), in [1] (setting [8]), in data set [1] (setting [9]), in [1] (setting [10]) and in [1] (setting [11]) was 5 (more than 90%) each time. In addition, the “herbicidal activity (barnyard grass)” value in the data set on barnyard grass (150 g/10a.), with barnyard grass (300 g/10a.) and in the data set with barnyard grass (600 g/10a.) was 5 (more than 90%) throughout. In data set [2], the LC50 at 48 h was determined as 11 µg/mL (≈ 44 µM). Besides, the LC50 at 96 h in data set [2] was 10 µg/mL (≈ 40 µM). In addition, the figures for the “Herbicidal activity Mizugayatsuri (Cyperus serotinus)” value (“Herbicidal activity Mizugayatsuri” for short) in data set [3] (150 g/10a.), in data set [3] (300 g/10a.) and in data set [3] (600 g/10a.) were 4 (70 to 89%), 4 (70 to 89%) and 5 (more than 90%), respectively. In addition, the “Herbicidal activity Hotarui (Scirpus juncoides)” value (“Herbicidal activity Hotarui” for short) in data set [4] (150 g/10a.) was 4 (70 to 89%); in data set [4] (300 g/10a.), 5 (more than 90%); in [4] (600 g/10a.) it was 5 (more than 90%). For the same molecule, the “Average Hematocrit Value of survival fish” value (shortened to “Average Hematocrit Value”) with carps (0.2 ppm, 3 weeks) amounted to 30%. For the same molecule, in data set [5], the survival at 504 h is 100%. Further, the “Herbicidal activity broad-leaf weeds” value in the data set with broad-leaf weeds (150 g/10a.), with broad-leaf weeds (300 g/10a.) and in the data set on broad-leaf weeds (600 g/10a.) was 5 (more than 90%) throughout.

Take `CC1CCC(C)CN(C(=O)SCCCCl)C1` (stereo not drawn) [Compound 6, S-(3-chloropropyl)-3,6-dimethyl-hexahydro-1H-azepine-1-carbothioate]: the “herbicidal activity (barnyard grass)” value in data set [1] (setting [6]), in data set [1] (setting [7]), in [1] (setting [8]), in [1] (setting [9]), in data set [1] (setting [10]) and in data set [1] (setting [11]) was 5 (more than 90%) each time. In addition, the “herbicidal activity (barnyard grass)” value in the data set on barnyard grass (150 g/10a.), in the data set on barnyard grass (300 g/10a.) and in the data set with barnyard grass (600 g/10a.) was 5 (more than 90%) each time. In addition, the LC50 at 48 h in [2] amounted to 4.4 µg/mL (≈ 16.7 µM). The LC50 at 96 h in [2] amounted to 3.7 µg/mL (≈ 14 µM). In addition, the “Herbicidal activity Mizugayatsuri” value in data set [3] (150 g/10a.) is recorded as 3 (50 to 69%); in data set [3] (300 g/10a.), 4 (70 to 89%); in data set [3] (600 g/10a.), 5 (more than 90%). The “Herbicidal activity Hotarui” value in data set [4] (150 g/10a.) was 4 (70 to 89%); in [4] (300 g/10a.) it was 5 (more than 90%); in data set [4] (600 g/10a.), 5 (more than 90%). The “Average Hematocrit Value” value with carps (0.2 ppm, 3 weeks) was determined as 34%. Also, in data set [5], the survival at 504 h was determined as 100%. Further, the “Herbicidal activity broad-leaf weeds” value with broad-leaf weeds (150 g/10a.) is reported as 4 (70 to 89%); with broad-leaf weeds (300 g/10a.), 5 (more than 90%); with broad-leaf weeds (600 g/10a.), 5 (more than 90%).

As for `CC1CCC(C)CN(C(=O)SCCCCCl)C1` (stereo not drawn) [Compound 7, S-(4-chlorobutyl)-3,6-dimethyl-hexahydro-1H-azepine-1-carbothioate], the “herbicidal activity (barnyard grass)” value in data set [1] (setting [6]), in data set [1] (setting [7]), in data set [1] (setting [8]), in data set [1] (setting [9]), in data set [1] (setting [10]) and in data set [1] (setting [11]) was 5 (more than 90%) throughout. Also, the “herbicidal activity (barnyard grass)” value in the data set on barnyard grass (150 g/10a.), in the data set with barnyard grass (300 g/10a.) and in the data set with barnyard grass (600 g/10a.) was 5 (more than 90%) in each case. Also, the LC50 at 48 h in data set [2] was determined as 2.6 µg/mL (≈ 9.36 µM). In addition, the LC50 at 96 h in data set [2] was 2.6 µg/mL (≈ 9.36 µM). The “Herbicidal activity Mizugayatsuri” value in [3] (150 g/10a.) is on record as 3 (50 to 69%); in data set [3] (300 g/10a.), 4 (70 to 89%); in [3] (600 g/10a.), 5 (more than 90%). Also, the “Herbicidal activity Hotarui” value in data set [4] (150 g/10a.) is given as 3 (50 to 69%); in data set [4] (300 g/10a.), 5 (more than 90%); in [4] (600 g/10a.), 5 (more than 90%). The “Average Hematocrit Value” value in the data set with carps (0.2 ppm, 3 weeks) is listed as 34%. Besides, the survival at 504 h in data set [5] was 100%. The “Herbicidal activity broad-leaf weeds” value in the data set on broad-leaf weeds (150 g/10a.) is given as 4 (70 to 89%); with broad-leaf weeds (300 g/10a.), 5 (more than 90%); in the data set with broad-leaf weeds (600 g/10a.), 5 (more than 90%).

As for `CCSC(=O)N1CCCCCC1` [Compound 13, S-ethyl-hexahydro-1H-azepine-1-carbothioate, reference compound], the “herbicidal activity (barnyard grass)” value in [1] (in vivo) was 5 (key: 5: more than 90%; 4: 70 to 89%; 3: 50 to 69%; 2: 30 to 49%; 10 to 29%; less than 10%) and 4 (key: 5: more than 90%; 4: 70 to 89%; 3: 50 to 69%; 2: 30 to 49%; 10 to 29%; less than 10%) and 3 (key: 5: more than 90%; 4: 70 to 89%; 3: 50 to 69%; 2: 30 to 49%; 10 to 29%; less than 10%); in the data set with barnyard grass (150 g/10a.), 3 (50 to 69%); in the data set on barnyard grass (300 g/10a.), 4 (70 to 89%); with barnyard grass (600 g/10a.), 5 (more than 90%). In addition, in data set [2], the LC50 at 48 h came to 34 µg/mL (≈ 182 µM). The “Herbicidal activity Mizugayatsuri” value in data set [3] (150 g/10a.) was 0 (less than 10%); in [3] (300 g/10a.) it was 1 (10 to 29%); in data set [3] (600 g/10a.), 1 (10 to 29%). Also, the “Herbicidal activity Hotarui” value in data set [4] (150 g/10a.) is 0 (less than 10%); in data set [4] (300 g/10a.) it was 1 (10 to 29%); in data set [4] (600 g/10a.), 2 (30 to 49%). Besides, the phytotoxicity rice plant with rice plants (150 g/10a.) is on record as 0 (less than 10%); in the data set on rice plants (300 g/10a.) it was 0 (less than 10%); in the data set on rice plants (600 g/10a.), 2 (30 to 49%). Moreover, in the data set on carps (0.2 ppm, 3 weeks), the “Average Hematocrit Value” value was 25%. Also, the “subacute toxicity to carps (in words)” value in the data set on carps (0.2 ppm, 3 weeks) is recorded as “high subacute toxicity to carps”. In addition, the “survival of carps (in words)” value in the data set with carps (0.2 ppm, 3 weeks) is “extremely low”. Besides, the “symptoms of anemia in carps (in words)” value in the data set with carps (0.2 ppm, 3 weeks) is recorded as “remarkable symptons of anemia”. The “subacute anemia symptoms in fish (in words)” value with carps (general statement) is on record as “subacute anemia symptoms in fish”. The survival at 504 h in data set [5] stood at 50%. Besides, the “Herbicidal activity broad-leaf weeds” value is recorded as 1 (10 to 29%) in the data set on broad-leaf weeds (150 g/10a.), 2 (30 to 49%) in the data set with broad-leaf weeds (300 g/10a.) and 3 (50 to 69%) in the data set with broad-leaf weeds (600 g/10a.).

The values are drawn from patent US4400199A, “Thiolcarbamate compounds and their use as herbicides” (priority 1981, dated 1983).
